The text below walks through data of paper PMC10587081, “Biochemical and structural basis of mercuric reductase, GbsMerA, from Gelidibacter salicanalis PAMC21136” (Scientific Reports, 2023).

For assay [1], the target named is mercuric reductase GbsMerA from Gelidibacter salicanalis PAMC21136 (Gelidibacter salicanalis PAMC21136). Nature of the assay: crystal structure; sitting drop vapor diffusion at 22 °C; GbsMerA 35 mg/mL with 1.6 M sodium phosphate monobasic/0.4 M potassium phosphate dibasic, 0.1 M sodium phosphate dibasic/citric acid pH 4.2; homodimer in the asymmetric unit.
Another assay concerns the target T1, GbsMerA (Gelidibacter salicanalis, UniProt A0A934NG65).
T1 construct: gene JEM65_00875; full length, 449 aa, pET32a(+) (BamHI/XhoI), N-terminal His6 tag and vector tag cleaved with enterokinase, E. coli BL21, SEC, homodimer with non-covalent FAD; no NmerA domain and no C-terminal Cys-Cys motif; primers encode N-terminus MKEYDV and C-terminus IPHML
T1 sequence (A0A934NG65 1-448): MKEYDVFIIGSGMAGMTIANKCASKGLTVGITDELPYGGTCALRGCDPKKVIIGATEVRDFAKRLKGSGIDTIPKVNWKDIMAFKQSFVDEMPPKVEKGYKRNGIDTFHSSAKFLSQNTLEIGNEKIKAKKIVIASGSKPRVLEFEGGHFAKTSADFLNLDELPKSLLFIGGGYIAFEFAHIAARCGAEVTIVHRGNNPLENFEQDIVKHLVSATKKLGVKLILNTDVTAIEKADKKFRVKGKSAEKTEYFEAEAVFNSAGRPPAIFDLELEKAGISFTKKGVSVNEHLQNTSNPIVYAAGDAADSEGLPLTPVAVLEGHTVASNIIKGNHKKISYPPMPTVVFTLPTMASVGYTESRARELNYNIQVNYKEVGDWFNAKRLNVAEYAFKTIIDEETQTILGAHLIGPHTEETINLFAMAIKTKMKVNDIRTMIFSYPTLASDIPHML
Nature of the assay: X-ray crystal structure. It counts as binding.

Usually stoichiometry N stands for the number of molecules, sites or subunits per partner or assembly. As for “mercuric reductase GbsMerA from Gelidibacter salicanalis PAMC21136 (enzyme)”, the stoichiometry N in assay [1] stood at 2.

As to `NC(=O)C1=CN([C@@H]2O[C@H](COP(=O)(O)OP(=O)(O)OC[C@H]3O[C@@H](n4cnc5c(N)ncnc54)[C@H](OP(=O)(O)O)[C@@H]3O)[C@@H](O)[C@H]2O)C=CC1` [NADPH], the X-ray crystal structure entry at GbsMerA (complex with FAD and NADPH, bicine/Trizma pH 8.5, re-face of the FAD isoalloxazine ring) is given as “Furthermore, we determined the GbsMerA–NADPH complex structure”.

`Cc1cc2nc3c(=O)[nH]c(=O)nc-3n(C[C@H](O)[C@H](O)[C@H](O)COP(=O)(O)OP(=O)(O)OC[C@H]3O[C@@H](n4cnc5c(N)ncnc54)[C@H](O)[C@@H]3O)c2cc1C` [FAD]: the X-ray crystal structure entry on GbsMerA (2.6 Å, non-covalently bound FAD in FAD-binding domain, crystallised at pH 4.2 (phosphate/citrate)) was “Non-covalently bound FAD is located in the central region of the FAD-binding domain”.
